Test: Compound was evaluated for half life at 37 degree Centigrade

Row | SMILES | half-life [min]
1 | CCCCC[C@H](O)/C=C/C1OC2CC(O2)[C@@H]1C/C=C\CCCC(=O)O (some centres not stated) | 0.5
2 | CCCCC[C@H](O)/C=C/[C@@H]1[C@H]2C/C(=C/CCCC(=O)O)O[C@H]2C[C@H]1O [EPOPROSTENOL] | 3
